Laboratory results: PubChem BioAssay AID1919015 (Molecular Pharmacology Branch, DTP, NCI, 2023)
Where “and” joins values, the source holds several entries; their conditions need not be identical. Equal entries are not always repeated.

System: OVCAR-5 complex spheroids with HUVEC/MSC, viability, % test/control
Experiment: Anticancer human tumor OVCAR-5 cell line growth inhibition [AhR];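 note: spheroids exposed to compounds for 7 days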;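 for viability, T/C: 100% = DMSO vehicle control wells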
Details: for viability, T/C: stronger effect = lower value
Procedure, shortened: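 Spheroids combined tumor cells with HUVEC endothelial cells and human MSCs as stroma. AhR antagonists were paired with standard or investigational drugs, each dosed in half-log steps down from near clinical Cmax, or from 10 microM where Cmax was unknown.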

[1] = curve of first compound, second compound 0.1 µM
[2] = curve of first compound, second compound 0.316 µM
[3] = curve of first compound, second compound 1 µM
[4] = curve of first compound, second compound 3.16 µM
[5] = curve of first compound, second compound 10 µM
[6] = second compound 0.1 µM, first compound 0.0316 µM
[7] = second compound 0.1 µM, first compound 0.1 µM
[8] = second compound 0.1 µM, first compound 0.316 µM
[9] = second compound 0.1 µM, first compound 1 µM
[10] = second compound 0.316 µM, first compound 0.0316 µM
[11] = second compound 0.316 µM, first compound 0.1 µM
[12] = second compound 0.316 µM, first compound 0.316 µM
[13] = second compound 0.316 µM, first compound 1 µM
[14] = second compound 1 µM, first compound 0.0316 µM
[15] = second compound 1 µM, first compound 0.1 µM
[16] = second compound 1 µM, first compound 0.316 µM
[17] = second compound 1 µM, first compound 1 µM
[18] = second compound 3.16 µM, first compound 0.0316 µM
[19] = second compound 3.16 µM, first compound 0.1 µM
[20] = second compound 3.16 µM, first compound 0.316 µM
[21] = second compound 3.16 µM, first compound 1 µM
[22] = second compound 10 µM, first compound 0.0316 µM
[23] = second compound 10 µM, first compound 0.1 µM
[24] = second compound 10 µM, first compound 0.316 µM
[25] = second compound 10 µM, first compound 1 µM
[26] = second compound 0.1 µM, first compound 3.16 µM
[27] = second compound 0.1 µM, first compound 10 µM
[28] = second compound 0.316 µM, first compound 3.16 µM
[29] = second compound 0.316 µM, first compound 10 µM
[30] = second compound 1 µM, first compound 3.16 µM
[31] = second compound 1 µM, first compound 10 µM
[32] = second compound 3.16 µM, first compound 3.16 µM
[33] = second compound 3.16 µM, first compound 10 µM
[34] = second compound 10 µM, first compound 3.16 µM
[35] = second compound 10 µM, first compound 10 µM

SMILES	IC50 [1] [µM]	IC50 [2] [µM]	IC50 [3] [µM]	IC50 [4] [µM]	IC50 [5] [µM]	viability, T/C [6] [%]	viability, T/C [7] [%]	viability, T/C [8] [%]	viability, T/C [9] [%]	viability, T/C [10] [%]	viability, T/C [11] [%]	viability, T/C [12] [%]	viability, T/C [13] [%]	viability, T/C [14] [%]	viability, T/C [15] [%]	viability, T/C [16] [%]	viability, T/C [17] [%]	viability, T/C [18] [%]	viability, T/C [19] [%]	viability, T/C [20] [%]	further results
CC1COCCN1c1cc(-c2ccnn2C)c2ccnc(-c3ccn[nH]3)c2n1 (configuration not stated) + CC(CO)NC(=O)c1cc(-c2ccc(Cl)cc2)nn(-c2cnn(C)c2)c1=O	0.281	0.276	0.297	0.207	0.0958	110	87	46.2	30.8	109	87	45.1	32.1	118	89	48.6	35.4	102	67.6	40.3	viability, T/C (second compound 0.1 µM, first compound 0.00316 µM): 111%; viability, T/C (second compound 0.1 µM, first compound 0.01 µM): 111%; viability, T/C (second compound 0.316 µM, first compound 0.00316 µM): 111%; viability, T/C (second compound 0.316 µM, first compound 0.01 µM): 113%; viability, T/C (second compound 1 µM, first compound 0.00316 µM): 119%; viability, T/C (second compound 1 µM, first compound 0.01 µM): 121%; viability, T/C (second compound 3.16 µM, first compound 0.00316 µM): 106%; viability, T/C (second compound 3.16 µM, first compound 0.01 µM): 115%; viability, T/C [21]: 35%; viability, T/C (second compound 10 µM, first compound 0.00316 µM): 99.7%; viability, T/C (second compound 10 µM, first compound 0.01 µM): 103%; viability, T/C [22]: 83.9%; viability, T/C [23]: 49%; viability, T/C [24]: 35.5%; viability, T/C [25]: 33.5%
Nc1ccccc1NC(=O)c1ccc(CNC(=O)OCc2cccnc2)cc1																					viability, T/C (compound 0.0316 µM): 92.2% and 93.7% and 84.8%; viability, T/C (compound 0.1 µM): 90.3% and 88.7% and 81.2%; viability, T/C (compound 0.316 µM): 75.1% and 77.2% and 67.5%; viability, T/C (compound 1 µM): 53.3% and 52.3% and 33.1%; viability, T/C (compound 3.16 µM): 23.5% and 21.1% and 19.9%; viability, T/C (compound 10 µM): 9.94% and 8.4% and 7.9%; IC50 (curve of compound): 1.08 µM and 1.05 µM and 0.58 µM
COc1cccc2c1C(=O)c1c(O)c3c(c(O)c1C2=O)CC(O)(C(=O)CO)CC3OC1CC(N)C(O)C(C)O1 (configuration not stated) + CC(CO)NC(=O)c1cc(-c2ccc(Cl)cc2)nn(-c2cnn(C)c2)c1=O	0.267	0.285	0.347	0.351	0.326	79.8	62.8	50	23.5	80	63.9	50.9	23.3	82.5	71.5	53.1	23.8	77	70.1	52.7	viability, T/C [26]: 3.18%; viability, T/C [27]: 0.94%; viability, T/C [28]: 2.8%; viability, T/C [29]: 0.91%; viability, T/C [30]: 2.66%; viability, T/C [31]: 0.86%; viability, T/C [21]: 22.9%; viability, T/C [32]: 1.63%; viability, T/C [33]: 1.01%; viability, T/C [22]: 72.7%; viability, T/C [23]: 76.2%; viability, T/C [24]: 49.5%; viability, T/C [25]: 15%; viability, T/C [34]: 0.79%; viability, T/C [35]: 1.12%
CC(C)c1c(-c2ccccc2)nc2c(C#N)c[nH]n2c1=O + Cc1ccccc1N=Nc1ccc(NC(=O)c2ccnn2C)c(C)c1	> 10	> 10	> 10	> 10	> 10	104	102	101	101	105	111	106	103	112	109	109	106	112	112	111	viability, T/C [26]: 104%; viability, T/C [27]: 106%; viability, T/C [28]: 106%; viability, T/C [29]: 104%; viability, T/C [30]: 106%; viability, T/C [31]: 111%; viability, T/C [21]: 108%; viability, T/C [32]: 111%; viability, T/C [33]: 114%; viability, T/C [22]: 108%; viability, T/C [23]: 110%; viability, T/C [24]: 108%; viability, T/C [25]: 107%; viability, T/C [34]: 104%; viability, T/C [35]: 104%
CC1COCCN1c1cc(C2(S(C)(=N)=O)CC2)nc(-c2ccnc3[nH]ccc23)n1 (configuration not stated) + CC(CO)NC(=O)c1cc(-c2ccc(Cl)cc2)nn(-c2cnn(C)c2)c1=O	9.07	9.9	> 10	8.95	6.64	106	105	104	101	109	105	107	108	116	112	112	109	108	101	100	viability, T/C [26]: 80.9%; viability, T/C [27]: 47.1%; viability, T/C [28]: 81.6%; viability, T/C [29]: 49.7%; viability, T/C [30]: 89.9%; viability, T/C [31]: 53%; viability, T/C [21]: 93.1%; viability, T/C [32]: 77.2%; viability, T/C [33]: 46.7%; viability, T/C [22]: 96.1%; viability, T/C [23]: 97.5%; viability, T/C [24]: 95.4%; viability, T/C [25]: 83.8%; viability, T/C [34]: 61.5%; viability, T/C [35]: 43.7%
